Assay results as given in patent US20240409585A1, “MACROCYCLIC IMMUNOMODULATORS” (priority 2021, published 2024).
Numbered stars: 1 amine (or outer) side, 2 acyl side, 3 side chain; on linkers, the order of the positions; unused ones are H or OH. Bridge positions count the residues as written; N and C are the ends. Square brackets hold non-standard residues; d marks the D form. Peptide text beside a SMILES is read from it. * marks the point of attachment. Bip(4'-COOH) = N[C@@H](Cc1ccc(-c2ccc(C(=O)O)cc2)cc1)C(=O)O; Bip(4'-NHAc) = CC(=O)Nc1ccc(-c2ccc(C[C@H](N)C(=O)O)cc2)cc1; X1 = O=C(C[C@H](N[*:1])C(=O)[*:2])NS(=O)(=O)c1ccc(Cl)cc1F; X14 = O=C(C[C@H](N[*:1])C(=O)[*:2])NS(=O)(=O)c1ccc(F)cc1; X6 = O=C(C[C@H](N[*:1])C(=O)[*:2])NS(=O)(=O)c1ccccc1Cl; Phe(3-CF3) = N[C@@H](Cc1cccc(C(F)(F)F)c1)C(=O)O; Ala(morpholin-4-yl) = N[C@@H](CN1CCOCC1)C(=O)O; Phe(4-COOH) = N[C@@H](Cc1ccc(C(=O)O)cc1)C(=O)O; Bip = N[C@@H](Cc1ccc(-c2ccccc2)cc1)C(=O)O; Cha = N[C@@H](CC1CCCCC1)C(=O)O; Carboxymethyl = O=C(O)C*; NMeA = CN[C@@H](C)C(=O)O; Nle = CCCC[C@H](N)C(=O)O; Orn = NCCC[C@H](N)C(=O)O; Dab = NCC[C@H](N)C(=O)O

Legend:
[1] = biological target: T1, PE-labeled human PD-L1-Ig binding to Jurkat cell line over-expressing human PD-1 (Jurkat-PD-1) (Homo sapiens, UniProt Q15116); experiment: Jurkat-PD-1 Cell Binding High-Content Screening Assay (CBA): Method 1; conditions: Jurkat-PD-1 cells, PE-labeled PD-L1-Ig
T1 construct: expressed in transfected cells; host or cells: Jurkat

[2] = biological target: T1, PE-labeled human PD-L1-Ig binding to Jurkat cell line over-expressing human PD-1 (Jurkat-PD-1); experiment: Jurkat-PD-1 Cell Binding High-Content Screening Assay (CBA): Method 2 (presence and absence of tween-20); conditions: Jurkat-PD-1 cells, PE-labeled PD-L1-Ig 20 nM, presence or absence of tween-20 not given
Procedure, shortened: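 Compounds incubated with Jurkat cells overexpressing human PD-1 for 2 h at 37° C, tested with and without tween-20 to flag aggregation. PE-labeled human PD-L1-Ig (20 nM final) added in DMEM/10% FCS; binding read by high-content imaging.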

[3] = head μM, read-out: CBA Method 2 μM

T1 sequence (Q15116 25-288): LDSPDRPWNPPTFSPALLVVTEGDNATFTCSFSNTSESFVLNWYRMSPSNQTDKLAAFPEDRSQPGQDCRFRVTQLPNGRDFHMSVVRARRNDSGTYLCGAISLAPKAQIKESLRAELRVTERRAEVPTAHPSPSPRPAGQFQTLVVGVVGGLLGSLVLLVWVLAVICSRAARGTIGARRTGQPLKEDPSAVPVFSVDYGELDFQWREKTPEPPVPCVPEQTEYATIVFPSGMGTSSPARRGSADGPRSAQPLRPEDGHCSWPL

Compound	IC50 ([1]; μM, read-out: CBA Method 1 μM) [µM]	IC50 [2, 3] [µM]	IC50 ([1]; nM, read-out: CBA Method 1) [µM]	IC50 ([2]; nM, read-out: CBA Method 2) [µM]
CC(C)C[C@H]1NC(=O)[C@H](C)N(C)C(=O)[C@H](CCC(N)=O)NC(=O)[C@H](Cc2ccc(-c3ccccc3)cc2)NC(=O)[C@H](Cc2ccc(C(=O)O)cc2)NC(=O)[C@H](Cc2cccc(C(F)(F)F)c2)NC(=O)[C@H](CC(=O)NS(=O)(=O)c2ccc(F)cc2)NC(=O)[C@H](Cc2ccc(C(=O)O)cc2)NC(=O)[C@H](CN2CCOCC2)NC(=O)CSC[C@@H](C(=O)N[C@@H](CCN)C(N)=O)NC(=O)[C@H](CCCN)NC(=O)[C@H](C(C)C)NC(=O)[C@H](CC2CCCCC2)NC(=O)[C@H](CCN)NC1=O [Example 5079] ({CH2CO}-[Ala(morpholin-4-yl)][Phe(4-COOH)][X14][Phe(3-CF3)][Phe(4-COOH)][Bip]Q[NMeA][dL][Dab][Cha]V[Orn]C[Dab]-NH2; thioether N-14)	0.138	0.229	–	–
CC(C)C[C@H]1NC(=O)[C@H](C)N(C)C(=O)[C@H](CCC(N)=O)NC(=O)[C@H](Cc2ccc(-c3ccccc3)cc2)NC(=O)[C@H](Cc2ccc(C(=O)O)cc2)NC(=O)[C@H](Cc2cccc(C(F)(F)F)c2)NC(=O)[C@H](CC(=O)NS(=O)(=O)c2ccccc2Cl)NC(=O)[C@H](Cc2ccc(C(=O)O)cc2)NC(=O)[C@H](CN2CCOCC2)NC(=O)CSC[C@@H](C(=O)N[C@@H](CCN)C(N)=O)NC(=O)[C@H](CCCN)NC(=O)[C@H](C(C)C)NC(=O)[C@H](CC2CCCCC2)NC(=O)[C@H](CCN)NC1=O [Example 5080] ({CH2CO}-[Ala(morpholin-4-yl)][Phe(4-COOH)][X6][Phe(3-CF3)][Phe(4-COOH)][Bip]Q[NMeA][dL][Dab][Cha]V[Orn]C[Dab]-NH2; thioether N-14)	0.224	0.332	–	–
CC(C)C[C@H]1NC(=O)[C@H](C)N(C)C(=O)[C@H](CCC(N)=O)NC(=O)[C@H](Cc2ccc(-c3ccccc3)cc2)NC(=O)[C@H](Cc2ccc(C(=O)O)cc2)NC(=O)[C@H](Cc2cccc(C(F)(F)F)c2)NC(=O)[C@H](CC(=O)NS(=O)(=O)c2ccc(Cl)cc2F)NC(=O)[C@H](Cc2ccc(C(=O)O)cc2)NC(=O)[C@H](CN2CCOCC2)NC(=O)CSC[C@@H](C(=O)N[C@@H](CCN)C(N)=O)NC(=O)[C@H](CCCN)NC(=O)[C@H](C(C)C)NC(=O)[C@H](CC2CCCCC2)NC(=O)[C@H](CCN)NC1=O [Example 5081] ({CH2CO}-[Ala(morpholin-4-yl)][Phe(4-COOH)][X1][Phe(3-CF3)][Phe(4-COOH)][Bip]Q[NMeA][dL][Dab][Cha]V[Orn]C[Dab]-NH2; thioether N-14)	0.173	0.113	–	–
CC(=O)Nc1ccc(-c2ccc(C[C@@H]3NC(=O)[C@H](Cc4cccc(C(F)(F)F)c4)NC(=O)[C@H](CC(=O)O)NC(=O)[C@H](Cc4ccc(-c5ccc(C(=O)O)cc5)cc4)NC(=O)[C@H](Cc4ccc(OCC(=O)O)cc4)NC(=O)CSC[C@@H](C(=O)N[C@@H](CCN)C(N)=O)NC(=O)[C@H](CCC(=O)O)NC(=O)[C@H](C(C)C)NC(=O)[C@H](CC4CCCCC4)NC(=O)[C@H](CCN)NC(=O)[C@@H](CC(C)C)NC(=O)[C@H](C)N(C)C(=O)[C@H](CCCN)NC(=O)[C@H](Cc4ccc(-c5ccccc5)cc4)NC3=O)cc2)cc1 [Example 5084] ({CH2CO}-Y(Carboxymethyl)[Bip(4'-COOH)]D[Phe(3-CF3)][Bip(4'-NHAc)][Bip][Orn][NMeA][dL][Dab][Cha]VEC[Dab]-NH2; thioether N-14)	0.0243	0.0332	–	–
CC(C)C[C@H]1NC(=O)[C@H](C)N(C)C(=O)[C@H](CCCN)NC(=O)[C@H](Cc2ccc(-c3ccccc3)cc2)NC(=O)[C@H](Cc2ccc(-c3ccc(C(=O)O)cc3)cc2)NC(=O)[C@H](Cc2cccc(C(F)(F)F)c2)NC(=O)[C@H](CC(=O)O)NC(=O)[C@H](Cc2ccc(-c3ccc(C(=O)O)cc3)cc2)NC(=O)[C@H](Cc2ccc(OCC(=O)O)cc2)NC(=O)CSC[C@@H](C(=O)N[C@@H](CCN)C(N)=O)NC(=O)[C@H](CCC(=O)O)NC(=O)[C@H](C(C)C)NC(=O)[C@H](CC2CCCCC2)NC(=O)[C@H](CCN)NC1=O [Example 5085] ({CH2CO}-Y(Carboxymethyl)[Bip(4'-COOH)]D[Phe(3-CF3)][Bip(4'-COOH)][Bip][Orn][NMeA][dL][Dab][Cha]VEC[Dab]-NH2; thioether N-14)	0.0315	0.01	–	–
CC(C)C[C@H]1NC(=O)[C@H](C)N(C)C(=O)[C@H](CCCN)NC(=O)[C@H](Cc2ccc(-c3ccccc3)cc2)NC(=O)[C@H](Cc2ccc(-c3ccc(C(=O)O)cc3)cc2)NC(=O)[C@H](Cc2cccc(C(F)(F)F)c2)NC(=O)[C@H](CC(=O)O)NC(=O)[C@H](Cc2ccc(-c3ccc(C(=O)O)cc3)cc2)NC(=O)[C@H](Cc2ccc(OCC(=O)O)cc2)NC(=O)CSC[C@@H](C(=O)N[C@@H](CCN)C(N)=O)NC(=O)[C@H](CC(N)=O)NC(=O)[C@H](C(C)C)NC(=O)[C@H](CC2CCCCC2)NC(=O)[C@H](CCN)NC1=O [Example 5086] ({CH2CO}-Y(Carboxymethyl)[Bip(4'-COOH)]D[Phe(3-CF3)][Bip(4'-COOH)][Bip][Orn][NMeA][dL][Dab][Cha]VNC[Dab]-NH2; thioether N-14)	–	–	0.0055	0.0099
CC(C)C[C@H]1NC(=O)[C@H](C)N(C)C(=O)[C@H](CCCN)NC(=O)[C@H](Cc2ccc(-c3ccccc3)cc2)NC(=O)[C@H](Cc2ccc(-c3ccc(C(=O)O)cc3)cc2)NC(=O)[C@H](Cc2cccc(C(F)(F)F)c2)NC(=O)[C@H](CC(=O)O)NC(=O)[C@H](Cc2ccc(-c3ccc(C(=O)O)cc3)cc2)NC(=O)[C@H](Cc2ccc(OCC(=O)O)cc2)NC(=O)CSC[C@@H](C(=O)N[C@@H](CCN)C(N)=O)NC(=O)[C@H](CCCN)NC(=O)[C@H](C(C)C)NC(=O)[C@H](CC2CCCCC2)NC(=O)[C@H](CCN)NC1=O [Example 5087] ({CH2CO}-Y(Carboxymethyl)[Bip(4'-COOH)]D[Phe(3-CF3)][Bip(4'-COOH)][Bip][Orn][NMeA][dL][Dab][Cha]V[Orn]C[Dab]-NH2; thioether N-14)	0.03	0.11	–	–

Other lines, results leading:

IC50 ([1]; μM, read-out: CBA Method 1 μM) [µM]	IC50 [2, 3] [µM]	IC50 ([1]; nM, read-out: CBA Method 1) [µM]	IC50 ([2]; nM, read-out: CBA Method 2) [µM]	Compound
0.09	0.2	–	–	CCCC[C@@H]1NC(=O)CSC[C@@H](C(=O)N[C@@H](CCN)C(N)=O)NC(=O)[C@H](CCCN)NC(=O)[C@H](C(C)C)NC(=O)[C@H](CC2CCCCC2)NC(=O)[C@H](CCN)NC(=O)[C@@H](CC(C)C)NC(=O)[C@H](C)N(C)C(=O)[C@H](CCCN)NC(=O)[C@H](Cc2ccc(-c3ccccc3)cc2)NC(=O)[C@H](Cc2ccc(-c3ccc(C(=O)O)cc3)cc2)NC(=O)[C@H](Cc2cccc(C(F)(F)F)c2)NC(=O)[C@H](CC(=O)O)NC(=O)[C@H](Cc2ccc(-c3ccc(C(=O)O)cc3)cc2)NC1=O [Example 5088] ({CH2CO}-[Nle][Bip(4'-COOH)]D[Phe(3-CF3)][Bip(4'-COOH)][Bip][Orn][NMeA][dL][Dab][Cha]V[Orn]C[Dab]-NH2; thioether N-14)
0.01	0.11	–	–	CCCC[C@@H]1NC(=O)CSC[C@@H](C(=O)N[C@@H](CCN)C(N)=O)NC(=O)[C@H](CCC(=O)O)NC(=O)[C@H](C(C)C)NC(=O)[C@H](CC2CCCCC2)NC(=O)[C@H](CCN)NC(=O)[C@@H](CC(C)C)NC(=O)[C@H](C)N(C)C(=O)[C@H](CCCN)NC(=O)[C@H](Cc2ccc(-c3ccccc3)cc2)NC(=O)[C@H](Cc2ccc(-c3ccc(C(=O)O)cc3)cc2)NC(=O)[C@H](Cc2cccc(C(F)(F)F)c2)NC(=O)[C@H](CC(=O)O)NC(=O)[C@H](Cc2ccc(-c3ccc(C(=O)O)cc3)cc2)NC1=O [Example 5089] ({CH2CO}-[Nle][Bip(4'-COOH)]D[Phe(3-CF3)][Bip(4'-COOH)][Bip][Orn][NMeA][dL][Dab][Cha]VEC[Dab]-NH2; thioether N-14)
0.01	–	–	0.0087	CCCC[C@@H]1NC(=O)CSC[C@@H](C(=O)N[C@@H](CCN)C(N)=O)NC(=O)[C@H](CC(N)=O)NC(=O)[C@H](C(C)C)NC(=O)[C@H](CC2CCCCC2)NC(=O)[C@H](CCN)NC(=O)[C@@H](CC(C)C)NC(=O)[C@H](C)N(C)C(=O)[C@H](CCCN)NC(=O)[C@H](Cc2ccc(-c3ccccc3)cc2)NC(=O)[C@H](Cc2ccc(-c3ccc(C(=O)O)cc3)cc2)NC(=O)[C@H](Cc2cccc(C(F)(F)F)c2)NC(=O)[C@H](CC(=O)O)NC(=O)[C@H](Cc2ccc(-c3ccc(C(=O)O)cc3)cc2)NC1=O [Example 5090] ({CH2CO}-[Nle][Bip(4'-COOH)]D[Phe(3-CF3)][Bip(4'-COOH)][Bip][Orn][NMeA][dL][Dab][Cha]VNC[Dab]-NH2; thioether N-14)
0.09	0.07	–	–	CC(=O)Nc1ccc(-c2ccc(C[C@@H]3NC(=O)[C@H](Cc4cccc(C(F)(F)F)c4)NC(=O)[C@H](CC(=O)O)NC(=O)[C@H](Cc4ccc(-c5ccc(C(=O)O)cc5)cc4)NC(=O)[C@H](CN4CCOCC4)NC(=O)CSC[C@@H](C(=O)N[C@@H](CCN)C(N)=O)NC(=O)[C@H](CCN)NC(=O)[C@H](C(C)C)NC(=O)[C@H](CC4CCCCC4)NC(=O)[C@H](CCN)NC(=O)[C@@H](CC(C)C)NC(=O)[C@H](C)N(C)C(=O)[C@H](CCCN)NC(=O)[C@H](Cc4ccc(-c5ccccc5)cc4)NC3=O)cc2)cc1 [Example 5091] ({CH2CO}-[Ala(morpholin-4-yl)][Bip(4'-COOH)]D[Phe(3-CF3)][Bip(4'-NHAc)][Bip][Orn][NMeA][dL][Dab][Cha]V[Dab]C[Dab]-NH2; thioether N-14)
